# Reference: patent US8546357B2, “Boron-containing small molecules for controlling ectoparasites” (priority 2011, dated 2013)
# How the values were obtained:
# [1] = system: adult American dog tick (Dermacentor variabilis); assay: Therapeutic (knockdown) and residual efficacy against adult American dog tick infestations on dogs, oral; type: in vivo; settings: for Residual efficacy: Example 7, oral capsule 35 mg/kg
# Description: (§1) The therapeutic (knockdown) and residual efficacy of 5, administered orally at a point dose of 25 mg/kg bodyweight, was evaluated against adult American dog tick (D. variabilis) infestations on dogs. Six beagle dogs were allocated to one of two treatment groups, an untreated control group (n=4 dogs) or 5 group (n=2 dogs). On Day 0, two dogs were treated with 5 via oral gavage (25 mg/ml 5, dissolved in a solution of 55% polyethylene glycol-300, 35% propylene glycol and 10% water) at a point dose of approximately 25 mg/kg. Twenty-four (24) hours before treatment (Day −1), all dogs were infested with approximately 50 unfed, adult-stage American dog ticks (D. variabilis; approximately 50% male and 50% female). On Day 1, approximately 24 hours after treatment, thumb counts were conducted to determine the number and life-status classification of ticks present on all dogs (normal, moribund or dead; attached or detached). Ticks were not removed during thumb counts. On Day 2, approximately 48 hours after treatment, all ticks were classified and removed from dogs. Dogs were re-infested with approximately 50 unfed, adult D. variabilis ticks on Days 5 and 12, with tick classification, counts and removal on Days 7 and 14 (approximately 48 hours after each infestation).
# (§2) The therapeutic (knockdown) and residual efficacy of 7 and 8, each administered orally at a point dose of 25 mg/kg bodyweight, was evaluated against adult tick (Dermacentor variabilis and Rhipicephalus sanguineus) and adult cat flea (Ctenocephalides felis) infestations on dogs. Twelve (12) male and female beagle dogs were randomly allocated to one of three treatment groups, four (4) dogs per group: Untreated control; 7, 25 mg/kg; and 8, 25 mg/kg. On Day −1, all dogs were infested with approximately 50 unfed, adult D. variabilis ticks. On Day 0, dogs were orally administered gelatin capsules containing either 7 or 8 (50% technical active, 47% microcrystalline cellulose and 3% croscarmellose sodium, w/w). Ticks were counted and classified, but not removed, on all dogs on Day 1, approximately 24 hours after treatment. On Day 2, approximately 48 hours after treatment, ticks were counted, classified and removed. Dogs were re-infested with the same number of D. variabilis ticks on Days 5, 12, 19 and 28 and tick counts were conducted on Days 7, 14, 21 and 30.
# (§3) The therapeutic (knockdown) and residual efficacy of 7, administered orally at a point dose of 35 mg/kg bodyweight, was evaluated against adult tick (Dermacentor variabilis and Rhipicephalus sanguineus) and adult cat flea (Ctenocephalides felis) infestations on dogs. Twelve (12) male and female beagle dogs were allocated to either an untreated, negative control group or 7 group (n=6 dogs per group). Dogs were infested with approximately 50 unfed, adult D. variabilis ticks on Days −1, 5, 12, 19, 28, 35 and 42. On Day 0, dogs were orally administered gelatin capsules containing Compound 8194 (50% technical active, 47% microcrystalline cellulose and 3% croscarmellose sodium, w/w) at a point dose of 35 mg/kg. D. variabilis tick counts and classification were conducted on Day 1 (thumb count, approximately 24 hours after treatment) and Days 2, 7, 14, 21, 30, 37 and 44 (approximately 48 hours after treatment). Following removal of D. variabilis ticks on Day 30, all dogs were co-infested with approximately 50 unfed, adult brown dog ticks (R. sanguineus) and approximately 100 unfed, adult cat fleas (C. felis). Brown dog tick and cat flea counts were conducted on Day 32 (approximately 48 hours after infestation). GM percent efficacy of treatments against both tick species and fleas was calculated using the following formula: […]
# The therapeutic (knockdown) and residual efficacy of S-enantiomer, 9, administered orally at a point dose of 25 mg/kg bodyweight, was evaluated against adult tick (Dermacentor variabilis and Rhipicephalus sanguineus) and adult cat flea (Ctenocephalides felis) infestations on dogs. […]
# [2] = system: brown dog tick (Rhipicephalus sanguineus); assay: Residual efficacy against adult brown dog tick infestations on dogs, oral; type: in vivo; settings: Day 32
# Description: Immediately following removal of D. variabilis ticks on Day 30, dogs were co-infested with approximately 50 adult, unfed brown dog ticks (R. sanguineus, approximately 50% male and 50% female) and approximately 100 adult, unfed cat fleas (C. felis, approximately 50% male and 50% female). Ticks and fleas were counted and removed on Day 32 (approximately 48 hours after infestation). GM percent efficacy of treatments against both tick species and fleas was calculated using the following formula: […]
# as §3
# The therapeutic (knockdown) and residual efficacy of S-enantiomer, 9, administered orally at a point dose of 25 mg/kg bodyweight, was evaluated against adult tick (Dermacentor variabilis and Rhipicephalus sanguineus) and adult cat flea (Ctenocephalides felis) infestations on dogs. Twelve (12) male and female beagle dogs were allocated to either an untreated, negative control group or 9 group (n=6 dogs per group). Dogs were infested with approximately 50 unfed, adult D. variabilis ticks on Days −1, 5, 12, 19, and 28. On Day 0, dogs were orally administered gelatin capsules containing 9 (50% technical active, 47% microcrystalline cellulose and 3% croscarmellose sodium, w/w) at a point dose of 25 mg/kg. D. variabilis tick counts and classification were conducted on Day 1 (thumb count, approximately 24 hours after treatment) and Days 2, 7, 14, 21 and 30 (approximately 48 hours after treatment). Following removal of D. variabilis ticks on Day 30, all dogs were co-infested with approximately 50 unfed, adult brown dog ticks (R. sanguineus) and approximately 100 unfed, adult cat fleas (C. felis). Brown dog tick and cat flea counts were conducted on Day 32 (approximately 48 hours after infestation). GM percent efficacy of treatments against both tick species and fleas was calculated using the following formula: […]
# [3] = Tolerability of oral treatment in dogs; type: in vivo, dog
# Description: as §1, §2
# The therapeutic (knockdown) and residual efficacy of 7, administered orally at a point dose of 35 mg/kg bodyweight, was evaluated against adult tick (Dermacentor variabilis and Rhipicephalus sanguineus) and adult cat flea (Ctenocephalides felis) infestations on dogs. Twelve (12) male and female beagle dogs were allocated to either an untreated, negative control group or 7 group (n=6 dogs per group). Dogs were infested with approximately 50 unfed, adult D. variabilis ticks on Days −1, 5, 12, 19, 28, 35 and 42. On Day 0, dogs were orally administered gelatin capsules containing Compound 8194 (50% technical active, 47% microcrystalline cellulose and 3% croscarmellose sodium, w/w) at a point dose of 35 mg/kg. […] GM percent efficacy of treatments against both tick species and fleas was calculated using the following formula: […]
# The therapeutic efficacy and speed of kill of 7, administered orally at a point dose of 20 mg/kg bodyweight, was evaluated against adult cat flea (Ctenocephalides felis) infestations on dogs. […]
# [4] = Table 2, oral capsule 25 mg/kg, Day 2
# [5] = Table 2, oral capsule 25 mg/kg, Day 7
# [6] = Table 2, oral capsule 25 mg/kg, Day 14
# [7] = Table 2, oral capsule 25 mg/kg, Day 21
# [8] = Table 2, oral capsule 25 mg/kg, Day 30
# [9] = Table 3, oral capsule 35 mg/kg, Day 2
# [10] = Table 3, oral capsule 35 mg/kg, Day 7
# [11] = Table 3, oral capsule 35 mg/kg, Day 14
# [12] = Table 3, oral capsule 35 mg/kg, Day 21
# [13] = Table 3, oral capsule 35 mg/kg, Day 30
# [14] = Table 3, oral capsule 35 mg/kg, Day 37
# [15] = Table 3, oral capsule 35 mg/kg, Day 44
# [16] = Example 7, oral capsule 35 mg/kg
compound,measurement,setting,value
"Cc1cc(C2=NOC(c3cc(Cl)c(Cl)c(Cl)c3)(C(F)(F)F)C2)ccc1C(=O)NCc1ccc2c(c1)B(O)OC2(C)C (stereo not drawn) [Compound 7, N-((1-Hydroxy-3,3-dimethyl-1,3-dihydrobenzo[c][1,2]oxaborol-6-yl)methyl)-2-methyl-4-(5-(3,4,5-trichlorophenyl)-5-(trifluoromethyl)-4,5-dihydroisoxazol-3-yl)benzamide]",continued residual efficacy,"[1]; Example 6, oral capsule 25 mg/kg, through at least 14 days",100%
same,Residual efficacy,[1]; through Day 14,> 99%
same,Residual efficacy,[1]; through Day 37,> 95%
same,Geometric mean group live parasite counts,"[1]; Table 2, oral capsule 25 mg/kg, Day 1",0.0
same,% efficacy,[1]; [4],(100) %
same,Geometric mean group live parasite counts,[1]; [4],0.0
same,% efficacy,[1]; [5],(100) %
same,Geometric mean group live parasite counts,[1]; [5],0.0
same,% efficacy,[1]; [6],(100) %
same,Geometric mean group live parasite counts,[1]; [6],0.0
same,% efficacy,[1]; [7],(99.3) %
same,Geometric mean group live parasite counts,[1]; [7],0.3
same,% efficacy,[1]; [8],(73.2) %
same,Geometric mean group live parasite counts,[1]; [8],9.5
same,Geometric mean group live parasite counts,"[1]; Table 3, oral capsule 35 mg/kg, Day 1",0.1
same,% efficacy,[1]; [9],(100) %
same,Geometric mean group live parasite counts,[1]; [9],0.0
same,% efficacy,[1]; [10],(99.1) %
same,Geometric mean group live parasite counts,[1]; [10],0.3
same,% efficacy,[1]; [11],(100) %
same,Geometric mean group live parasite counts,[1]; [11],0.0
same,% efficacy,[1]; [12],(98.4) %
same,Geometric mean group live parasite counts,[1]; [12],0.2
same,% efficacy,[1]; [13],(98.7) %
same,Geometric mean group live parasite counts,[1]; [13],0.4
same,% efficacy,[1]; [14],(95.7) %
same,Geometric mean group live parasite counts,[1]; [14],1.2
same,% efficacy,[1]; [15],(67.2) %
same,Geometric mean group live parasite counts,[1]; [15],9.3
same,Residual efficacy,[2]; [16],98.7%
same,Geometric mean group live parasite counts,"[2]; Table 2, oral capsule 25 mg/kg",4.8
same,tolerability,"[3]; Example 6, oral capsule 25 mg/kg",well tolerated
same,tolerability,[3]; [16],well tolerated
